Values of other authors as cited in patent US4571403A, “Antianginal medicated compound” (Institut Organicheskoi Khimii Imeni N.D. Zelinskogo …, priority 1984, dated 1986).
Counter-ions that a name gives are not always drawn.

System: myocardium / blood circulation
Settings: prior art; cited from earlier work

For `CCCCc1oc2ccccc2c1C(=O)c1cc(I)c(OCCN(CC)CC)c(I)c1` [Cardaron, [2-butyl-3-benzofuranyl]-[4-(2-diethylaminoethoxy)-3,5-diodophenyl]ketone hydrochloride], the adrenergic effect is listed as “antiadrenergic preparations with a mixed effect”, the “blood flow / blood supply of ischemized zones of myocardium” value is listed as “no selective effect on blood supply of the ischemized zone of myocardium” and the “contractability of the heart (inotropic effect)” value is listed as “negative inotropic effect on myocardium”. For the same compound, the duration of action was “short duration of its action”, the side effects was “affection of eye cornea” and the therapeutic range was “narrow therapeutic range”.
In the case of `O=[N+]([O-])OCC(CO[N+](=O)[O-])O[N+](=O)[O-]` [Trinitroglycerol, trinitroglycerol], the “incompatibility with other pharmaceutical preparations” value is listed as “incompatibility with some other pharmaceutical preparations” and the side effects is listed as “bad tolerance of the preparation by certain categories of patients accompanied by strong headaches”.
For `O=C(CCN1CCN2CCCC2C1)N1c2ccccc2Sc2ccc(Cl)cc21` (centres unmarked) [nonachlazine], the adrenergic effect is listed as “β-adrenostimulating component of the effect on myocardium”, the contraindications is listed as “cannot be administered in the case of kidney and liver diseases” and the systemic arterial pressure is listed as “lasting hypertension of the arterial pressure”.
